The NIST ThermoML archive (doi:10.1021/je900478c)
± gives the expanded uncertainty stated by the source.

What was measured:
[1] = 101 kPa, Liquid; for viscosity: Capillary tube (Ostwald / Ubbelohde) method
[2] = refractive index (Na D-line) (dimensionless); settings: 101.33 kPa, Liquid, Standard Abbe refractometry
[3] = xn = mol fraction of the nth substance listed; settings: 101 kPa, Liquid, x2 = 0; for viscosity: Capillary tube (Ostwald / Ubbelohde) method
[4] = refractive index (Na D-line) (dimensionless); xn = mol fraction of the nth substance listed; settings: 101 kPa, Liquid, Standard Abbe refractometry, x2 = 0

CCCCCCOCCOCCO [2-(2-hexyloxyethoxy)ethanol]
[1]
Settings | mass density [kg/m3]
283.15 K | 942.09 ± 0.26
288.15 K | 938.05 ± 0.26
293.15 K | 934.06 ± 0.27
303.15 K | 926.08 ± 0.28
313.15 K | 918.17 ± 0.29

CCCCOCCO [2-butoxyethan-1-ol]
Settings | mass density, [1] [kg/m3] | refractive index, [2] | viscosity, [1] [mPa·s]
283.15 K | 909.49 ± 0.43 | 1.4226 ± 0.00054 | 4.46 ± 0.049
293.15 K | 901.18 ± 0.44 | 1.4196 ± 0.00056 | 3.288 ± 0.037
303.15 K | 892.68 ± 0.45 | 1.4157 ± 0.00061 | 2.499 ± 0.028
313.15 K | 884.21 ± 0.46 | 1.41139 ± 0.00062 | 1.946 ± 0.021
323.15 K | 875.6 ± 0.47 | 1.40701 ± 0.00063 | 1.543 ± 0.017

CCCCOCCOCCO [3,6-dioxa-1-decanol]
Settings | refractive index, 283.15 K | refractive index, 293.15 K | refractive index, 303.15 K | refractive index, 313.15 K | refractive index, 323.15 K | viscosity, 283.15 K [mPa·s] | viscosity, 293.15 K [mPa·s] | viscosity, 303.15 K [mPa·s] | viscosity, 313.15 K [mPa·s] | viscosity, 323.15 K [mPa·s]
[1] | – | – | – | – | – | 8.301 ± 0.092 | 5.86 ± 0.069 | 4.323 ± 0.049 | 3.295 ± 0.036 | 2.58 ± 0.029
[2] | 1.4347 ± 0.00057 | 1.4312 ± 0.00056 | 1.42805 ± 0.00057 | 1.424 ± 0.00062 | 1.4194 ± 0.00064 | – | – | – | – | –

[1], Vibrating tube method
Settings | mass density [kg/m3]
283.15 K | 962.57 ± 0.23
293.15 K | 954.16 ± 0.23
303.15 K | 945.74 ± 0.23
313.15 K | 937.35 ± 0.23
323.15 K | 928.85 ± 0.23

O [water] + CCCCCCOCCOCCO
Settings | mass density [kg/m3]
[3], 283.15 K | 999.7 ± 0.12

O [water] + CCCCOCCO
Settings | mass density, [3] [kg/m3] | refractive index, [4] | viscosity, [3] [mPa·s]
283.15 K | 999.7 ± 0.12 | 1.33369 ± 0.00041 | 1.309 ± 0.013
293.15 K | – | 1.33299 ± 0.00041 | 1.003 ± 0.01
303.15 K | – | 1.33194 ± 0.00042 | 0.7983 ± 0.0078
313.15 K | – | 1.33061 ± 0.00043 | 0.6543 ± 0.0064
323.15 K | 988.04 ± 0.14 | 1.32904 ± 0.00043 | 0.5492 ± 0.0054

O [water] + CCCCOCCOCCO
Settings | refractive index, 283.15 K | refractive index, 293.15 K | refractive index, 303.15 K | refractive index, 313.15 K | refractive index, 323.15 K | viscosity, 283.15 K [mPa·s] | viscosity, 293.15 K [mPa·s] | viscosity, 303.15 K [mPa·s] | viscosity, 313.15 K [mPa·s] | viscosity, 323.15 K [mPa·s]
[3] | – | – | – | – | – | 1.309 ± 0.013 | 1.003 ± 0.01 | 0.7983 ± 0.0078 | 0.6543 ± 0.0064 | 0.5492 ± 0.0054
[4] | 1.33369 ± 0.00041 | 1.33299 ± 0.00041 | 1.33194 ± 0.00042 | 1.33061 ± 0.00043 | 1.32904 ± 0.00043 | – | – | – | – | –

[3], Vibrating tube method
Settings | mass density [kg/m3]
283.15 K | 999.7 ± 0.05
323.15 K | 988.04 ± 0.05
